Source: patent publication US10961200B2, “Small molecule inhibitors of lactate dehydrogenase and methods of use thereof” (THE UNITED STATES OF AMERICA, AS REPRESENTED BY THE …, priority 2014, dated 2021)

Target: Human LDHA (Homo sapiens (Human), UniProt P00338)
Assay: human LDHA primary biochemical assay (resazurin/diaphorase coupled, fluorescence)
Settings: LDHA inhibitory activity, activity level based on IC50 (Table 7)
Text: Test compounds were placed in a Greiner Bio-One (Monroe, N.C.) 1536-well black solid bottom assay plate. 200 millimolar (mM) Tris HCl, pH 7.4, 100 micromolar […] EDTA and 0.01% TWEEN-20™, final concentration, was used as the assay buffer. The LDHA reagent was 2 nanomolar (nM) Human LDHA (Meridian Life Science, Inc., Memphis, Tenn.), final concentration, in assay buffer.

| Compound | IC50 |
| --- | --- |
| NS(=O)(=O)c1ccc(Cc2cn(-c3nc(C(=O)O)cs3)nc2-c2cccc(OCC3CCOC3)c2)cc1 (stereo not drawn) [Compound 461, 2-(4-(4-sulfamoylbenzyl)-3-(3-((tetrahydrofuran-3-yl)methoxy)phenyl)-1H-pyrazol-1-yl)thiazole-4-carboxylic acid] | < 100 nM |
| Cc1ccc(-c2cccc(-c3c(Cc4ccc(S(N)(=O)=O)cc4F)c(C4CC4)nn3-c3nc(C(=O)O)cs3)c2)cc1 [Compound 354] | 1000 to 57000 nM |
| NS(=O)(=O)c1ccc(Cc2c(-c3cccc(-c4ccc(F)cc4)c3)nn(-c3nc(C(=O)O)cs3)c2C2CC2)cc1F [Compound 349] | < 100 nM |
| CCOC(=O)c1csc(-n2nc(-c3ccc(F)c(-c4ccc(F)cc4)c3)c(Cc3ccc(S(N)(=O)=O)cc3F)c2CC2CC2)n1 [Compound 345] | 1000 to 57000 nM |
| COc1cccc(COc2cccc(-c3nn(-c4nc(C(=O)O)cs4)cc3Cc3ccc(S(N)(=O)=O)cc3)c2)c1 [Compound 462, 2-(3-(3-((3-methoxybenzyl)oxy)phenyl)-4-(4-sulfamoylbenzyl)-1H-pyrazol-1-yl)thiazole-4-carboxylic acid] | < 100 nM |
| Cc1ccc(-c2nn(-c3nc(C(=O)O)cs3)cc2Cc2ccc(S(N)(=O)=O)cc2)cc1-c1ccc(F)cc1 [Compound 498, 2-(3-(4′-fluoro-6-methyl-[1,1′-biphenyl]-3-yl)-4-(4-sulfamoylbenzyl)-1H-pyrazol-1-yl)thiazole-4-carboxylic acid] | 100 to 1000 nM |
| NS(=O)(=O)c1ccc(Cc2cn(-c3nc(C(=O)O)cs3)nc2-c2cccc(OCC3CCCO3)c2)cc1 (stereo not drawn) [Compound 463, 2-(4-(4-sulfamoylbenzyl)-3-(3-((tetrahydrofuran-2-yl)methoxy)phenyl)-1H-pyrazol-1-yl)thiazole-4-carboxylic acid] | < 100 nM |

Same assay, conditions: LDHA inhibitory activity, assay of Example 1; activity level classes

| Compound | IC50 |
| --- | --- |
| NS(=O)(=O)c1ccc(Nc2c[nH]nc2-c2cccc(-c3ccccc3)c2)cc1 [Compound 161] | > 57000 nM |
| NS(=O)(=O)c1ccc(Cc2cn(-c3nc(C(=O)O)cs3)c3ccc(-c4ccccc4F)cc23)cc1 [Compound 195, 2-(5-(2-fluorophenyl)-3-(4-sulfamoylbenzyl)-1H-indol-1-yl)thiazole-4-carboxylic acid] | < 100 nM |
| O=C(O)c1csc(-n2nc(-c3ccc(NS(=O)(=O)C4CC4)c(F)c3)cc2O)n1 [Compound 111, 2-(3-(4-(cyclopropanesulfonamido)-3-fluorophenyl)-5-hydroxy-1H-pyrazol-1-yl)thiazole-4-carboxylic acid] | > 57000 nM |
| CCOC(=O)c1csc(-n2nc(-c3ccc(F)c(-c4cccc(F)c4)c3)c(Cc3ccc(S(N)(=O)=O)c(F)c3)c2C2CC2)n1 [Compound 247] | 1000 to 57000 nM |
| COc1cccc(-c2cc(-c3nn(-c4nc(C(=O)O)cs4)c(C4CC4)c3Cc3ccc([S+](N)(=O)[O-])cc3F)ccc2F)c1 [Compound 256] | < 100 nM |
| CCOC(=O)c1cccc(-n2nc(-c3ccccc3)c(Cc3ccc(S(N)(=O)=O)cc3)c2N)c1 [Compound 129, ethyl 3-(5-amino-3-phenyl-4-(4-sulfamoylbenzyl)-1H-pyrazol-1-yl)benzoate] | > 57000 nM |
| O=C(O)c1csc(-n2nc(-c3ccc(F)c(F)c3)c3cccc(O)c32)n1 [Compound 119, 2-(3-(3,4-difluorophenyl)-7-hydroxy-1H-indazol-1-yl)thiazole-4-carboxylic acid] | > 57000 nM |
| O=C(O)c1csc(-n2nc(-c3ccc(F)c(F)c3)cc2C(=O)O)n1 [Compound 71, 2-(5-carboxy-3-(3,4-difluorophenyl)-1H-pyrazol-1-yl)thiazole-4-carboxylic acid] | > 57000 nM |
| O=C(O)c1csc(-n2nc(-c3cc(F)ccc3F)cc2O)n1 [Compound 102, 2-(3-(2,5-difluorophenyl)-5-hydroxy-1H-pyrazol-1-yl)thiazole-4-carboxylic acid] | > 57000 nM |
| N#Cc1c(Cc2ccc(S(N)(=O)=O)cc2)c(-c2ccccc2)nn1-c1nc(C(=O)O)cs1 [Compound 50] | < 100 nM |
| O=C(O)c1csc2c1c(=O)[nH]c1cc(-c3ccc(F)c(F)c3)nn12 [Compound 116, 2-(3,4-difluorophenyl)-5-oxo-4,5-dihydropyrazolo[1,5-a]thieno[3,2-e]pyrimidine-6-carboxylic acid] | > 57000 nM |
| CCOC(=O)c1csc(-n2nc(CC3CC3)c(Cc3ccc(S(N)(=O)=O)cc3F)c2-c2ccc(F)c(-c3cccc(F)c3)c2)n1 [Compound 315] | > 57000 nM |
| CNS(=O)(=O)c1ccc(Cc2c(-c3cccc(-c4ccccc4)c3)nn(-c3nc(C(=O)O)cs3)c2O)cc1 [Compound 124, 2-(3-([1,1′-biphenyl]-3-yl)-5-hydroxy-4-(4-(N-methylsulfamoyl)benzyl)-1H-pyrazol-1-yl)thiazole-4-carboxylic acid] | > 57000 nM |

Same assay, conditions: read-out: Inhibitory activity IC50

| Compound | IC50 |
| --- | --- |
| Cc1cccc(C(=O)n2nc(-c3ccccc3)c(Cc3ccc(S(N)(=O)=O)cc3)c2N)c1 [Compound 84, 4-((5-amino-1-(3-methylbenzoyl)-3-phenyl-1H-pyrazol-4-yl)methyl)benzenesulfonamide] | 1000 to 57000 nM |
| NS(=O)(=O)c1ccc(Cc2cn(-c3nc(C(=O)O)cs3)nc2-c2ccccc2)cc1 [Compound 19, 2-(3-phenyl-4-(4-sulfamoylbenzyl)-1H-pyrazol-1-yl)thiazole-4-carboxylic acid] | < 100 nM |
| CC(C)c1c(Cc2ccc(S(N)(=O)=O)cc2)c(-c2ccccc2)nn1-c1nc(C(=O)O)cs1 [Compound 159, 2-(5-isopropyl-3-phenyl-4-(4-sulfamoylbenzyl)-1H-pyrazol-1-yl)thiazole-4-carboxylic acid] | 100 to 1000 nM |
| CCOc1c(Cc2ccc(S(N)(=O)=O)cc2)c(-c2ccc(F)c(F)c2)nn1-c1nc(C(=O)O)cs1 [Compound 61, 2-(3-(3,4-difluorophenyl)-5-ethoxy-4-(4-sulfamoylbenzyl)-1H-pyrazol-1-yl)thiazole-4-carboxylic acid] | 100 to 1000 nM |
| NS(=O)(=O)c1ccc(Cc2c(-c3ccccc3)nn(-c3nc(C(=O)O)cs3)c2Cc2ccccc2)cc1 [Compound 185, 2-(5-benzyl-3-phenyl-4-(4-sulfamoylbenzyl)-1H-pyrazol-1-yl)thiazole-4-carboxylic acid] | 100 to 1000 nM |
| N#CCc1c(Cc2ccc(S(N)(=O)=O)cc2)c(-c2ccccc2)nn1-c1nc(C(=O)O)cs1 [Compound 59, 2-(5-(cyanomethyl)-3-phenyl-4-(4-sulfamoylbenzyl)-1H-pyrazol-1-yl)thiazole-4-carboxylic acid] | 100 to 1000 nM |
| Cc1noc(C)c1-c1cc(-c2c(Cc3ccc(S(N)(=O)=O)cc3F)c(CC3CC3)nn2-c2nc(C(=O)O)cs2)ccc1F [Compound 216, 2-(3-(cyclopropylmethyl)-5-(3-(3,5-dimethylisoxazol-4-yl)-4-fluorophenyl)-4-(2-fluoro-4-sulfamoylbenzyl)-1H-pyrazol-1-yl)thiazole-4-carboxylic acid] | > 57000 nM |
| CC(C)c1ccc(-c2cc(-c3c(Cc4ccc([S+](N)(=O)[O-])cc4)c(CC4CC4)nn3-c3nc(C(=O)O)cs3)ccc2F)cc1 [Compound 305] | 1000 to 57000 nM |
| Cc1ccc(-c2cc(-c3c(Cc4ccc([S+](N)(=O)[O-])cc4)c(CC4CC4)nn3-c3nc(C(=O)O)cs3)ccc2F)cc1 [Compound 283] | 1000 to 57000 nM |
| NS(=O)(=O)c1ccc(Cc2c(CCC3CC3)nn(-c3nc(C(=O)O)cs3)c2-c2cccc(-c3ccccc3)c2)cc1 [Compound 204, 2-(5-([1,1′-biphenyl]-3-yl)-3-(2-cyclopropylethyl)-4-(4-sulfamoylbenzyl)-1H-pyrazol-1-yl)thiazole-4-carboxylic acid] | 1000 to 57000 nM |
